Experimental data published in publication PMC2714694, “Conservation of the glucan phosphatase laforin is linked to rates of molecular evolution and the glucan metabolism of the organism” (BMC Evolutionary Biology, 2009).

Target: T1, Nv-laforin (Nematostella vectensis, UniProt A7SVW9)
T1 construct: gene NEMVEDRAFT_v1g194103; complete open reading frame from Nematostella DNA; GST-Nv-laforin-HIS6 from E. coli BL21 (DE3) CodonPlus RIL; CBM20 plus DSP
T1 sequence (A7SVW9 1-324): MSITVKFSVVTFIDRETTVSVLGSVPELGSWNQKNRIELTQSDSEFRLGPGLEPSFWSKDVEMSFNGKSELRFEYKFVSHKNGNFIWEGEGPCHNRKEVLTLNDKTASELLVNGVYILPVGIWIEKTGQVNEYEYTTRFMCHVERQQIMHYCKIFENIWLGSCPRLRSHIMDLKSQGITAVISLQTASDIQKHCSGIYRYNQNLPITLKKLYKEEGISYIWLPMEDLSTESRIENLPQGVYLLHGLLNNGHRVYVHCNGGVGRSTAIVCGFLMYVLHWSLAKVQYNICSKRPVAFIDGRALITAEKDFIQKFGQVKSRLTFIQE
Experiment: p-NPP hydrolysis, absorbance […] nm
Assay type: biochemical
Settings: 50 mM pNPP, pH 5-8 tested (optimum pH 7.5), 37 °C, 2 mM dithiothreitol, 0.1 M sodium acetate, 0.05 M bis-Tris, 0.05 M Tris-HCl

O=[N+]([O-])c1ccc(OP(=O)(O)O)cc1 [para-nitrophenylphosphate]
p-NPP hydrolysis, absorbance 410 nm: Both Bf- and Nv-laforin also utilized p-NPP as an artificial substrate
